Reference: patent publication US20240034736A1, “HSD17B13 INHIBITORS AND USES THEREOF” (FL2022-001, Inc., priority 2020, published 2024)
pIC50: −log10 of the molar value.

Each compound was assayed against Recombinant human HSD17B13 enzyme (Homo sapiens (Human), UniProt Q7Z5P4) (assay: HSD17b13 NAD(P)H-Glo Biochemical Assay). Settings: 50 uM estradiol, 1 mM NAD+; read-out: HSD17β13 IC50.
In short: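 Luminescent NAD(P)H-Glo detection (1 h, RT) quantified cofactor reduction after a 3 h, 37° C reaction of human HSD17B13 with estradiol (50 uM final) and NAD+ (1 mM final). Compounds were first pre-incubated 20 min at RT with enzyme in Tris pH 7.4 buffer containing Tween-20 and BSA.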

Chain of Recombinant human HSD17B13 enzyme (Q7Z5P4 20-300): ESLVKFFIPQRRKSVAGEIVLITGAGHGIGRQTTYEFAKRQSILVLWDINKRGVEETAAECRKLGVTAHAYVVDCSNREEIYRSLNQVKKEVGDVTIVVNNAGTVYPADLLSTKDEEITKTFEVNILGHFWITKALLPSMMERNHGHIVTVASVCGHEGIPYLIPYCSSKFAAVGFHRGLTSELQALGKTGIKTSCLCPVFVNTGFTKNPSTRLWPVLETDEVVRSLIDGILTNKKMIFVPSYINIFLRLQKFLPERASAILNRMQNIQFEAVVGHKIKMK

SMILES | pIC50
COc1ccc(Nc2ccc3c(cnn3-c3ccc(F)c(O)c3)c2)cc1Cl [Compound 22, 5-(5-((3-Chloro-4-methoxyphenyl)amino)-1H-indazol-1-yl)-2-fluorophenol] | 6.00 to 7.00
CS(=O)(=O)N1CCN(c2ccc3c(cnn3-c3cc(O)c(F)c(C(F)(F)F)c3)c2)C2(CCC2)C1 [Compound 21.46, 2-Fluoro-5-(5-(8-(methyl-sulfonyl)-5,8-diazaspiro[3.5]-nonan-5-yl)-1H-indazol-1-yl)-3-(trifluoromethyl)phenol] | 6.00 to 7.00
Cc1nn(-c2cc(C(F)(F)F)c(F)c(O)c2F)c2ccc(N3CCOCC34CC4)nc12 [Compound 19.48, 2,6-Difluoro-3-(3-methyl-5-(7-oxa-4-azaspiro[2.5]octan-4-yl)-1H-pyrazolo[4,3-b]pyridine-1-yl)-5-(trifluoromethyl)phenol] | 6.00 to 7.00
Oc1cc(-n2ncc3cc(-c4ccc(C(F)F)cc4)ccc32)ccc1F [Compound 5.15, 5-(5-(4-(Difluoromethyl)phenyl)-1H-indazol-1-yl)-2-fluorophenol] | 6.00 to 7.00
CS(=O)(=O)N1CCN(c2cc3cnn(-c4cc(F)c(F)c(O)c4F)c3cn2)CC1 [Compound 19.29, 2,3,6-Trifluoro-5-(5-(4-(methylsulfonyl)piperazin-1-yl)-1H-pyrazolo[3,4-c]pyridine-1-yl)phenol] | 6.00 to 7.00
CC1(C)CN(S(C)(=O)=O)CCN1c1cc2cnn(-c3cc(O)c(F)c(C(F)(F)F)c3)c2cn1 [Compound 19.04, 5-(5-(2,2-Dimethyl-4-(methylsulfonyl)piperazin-1-yl)-1H-pyrazolo[3,4-c]pyridine-1-yl)-2-fluoro-3-(trifluoromethyl)phenol] | 6.00 to 7.00
CS(=O)(=O)N1CCN(c2cc3cnn(-c4cc(O)c(F)c(F)c4)c3cn2)CC1 [Compound 21.40, 2,3-Difluoro-5-(5-(4-(methyl-sulfonyl)piperazin-1-yl)-1H-pyrazolo[3,4-c]pyridine-1-yl)-phenol] | 6.00 to 7.00
Cc1nn(-c2cc(C(F)(F)F)c(F)c(O)c2F)c2cnc(N3CCN(S(=O)(=O)c4cnn(C)c4)CC3)cc12 [Compound 19.57, 2,6-Difluoro-3-(3-methyl-5-(4-((1-methyl-1H-pyrazol-4-yl)sulfonyl)piperazin-1-yl)-1H-pyrazolo[3,4-c]pyridin-1-yl)-5-(trifluoromethyl)phenol] | > 7.00
Oc1cncc(-n2ncc3cc(-c4ccc(O)c(Cl)c4)ccc32)c1 [Compound 17, 5-(5-(3-Chloro-4-hydroxyphenyl)-1H-indazol-1-yl)pyridin-3-ol] | 6.00 to 7.00
CCc1nn(-c2cc(C(F)(F)F)c(F)c(O)c2F)c2ccc(N(C)C3CCOCC3)cc12 [Compound 19.73, 3-(3-Ethyl-5-(methyl(tetrahydro-2H-pyran-4-yl)amino)-1H-indazol-1-yl)-2,6-difluoro-5-(trifluoromethyl)phenol] | 6.00 to 7.00
O=S(=O)(Nc1ccc(-c2ccc3c(cnn3-c3ccc(F)c(O)c3)c2)cc1)c1ccccc1 [Compound 11.01, N-(4-(1-(4-Fluoro-3-hydroxyphenyl)-1H-indazol-5-yl)phenyl)benzenesulfonamide] | 6.00 to 7.00
CS(=O)(=O)N1CCN(c2cc3cn(-c4cc(O)c(F)cn4)nc3cn2)CC1 [Compound 19.20, 5-Fluoro-2-(5-(4-(methylsulfonyl)piperazin-1-yl)-2H-pyrazolo[3,4-c]pyridine-2-yl)pyridine-4-ol] | 4.52 to 6.00
CC(=O)N1CCC(Oc2ccc3c(cnn3-c3cc(O)c(F)c(F)c3)c2)CC1 [Compound 24, 1-(4-((1-(3,4-Difluoro-5-hydroxyphenyl)-1H-indazol-5-yl)oxy)piperidin-1-yl)ethan-1-one] | 4.52 to 6.00
CS(=O)(=O)N1CCN(c2ccc3c(cnn3-c3cc(O)c(F)c(F)c3)c2Cl)CC1 [Compound 21.15, 5-(4-Chloro-5-(4-(methyl-sulfonyl)piperazin-1-yl)-1H-indazol-1-yl)-2,3-difluoro-phenol] | 4.52 to 6.00
Oc1cc(-n2ncc3cc(N4CCOCC45CC5)ncc32)cc(C(F)(F)F)c1F [Compound 21.54, 5-(5-(7-Oxa-4-azaspiro[2.5]-octan-4-yl)-1H-pyrazolo[3,4-c]pyridin-1-yl)-2-fluoro-3-(trifluoromethyl)phenol] | 6.00 to 7.00
CS(=O)(=O)N1CCN(c2cc3cnn(-c4ccc(C(F)(F)F)c(O)c4F)c3cn2)CC1 [Compound 19.25, 2-Fluoro-3-(5-(4-(methylsulfonyl)piperazin-1-yl)-1H-pyrazolo[3,4-c]pyridine-1-yl)-6-(trifluoromethyl)phenol] | 4.52 to 6.00
Oc1cc(-n2ncc3cc(-c4cncc(Cl)c4)ccc32)cc(F)c1F [Compound 7, 5-(5-(5-Chloropyridin-3-yl)-1H-indazol-1-yl)-2,3-difluorophenol] | 6.00 to 7.00

SMILES | pIC50
Cc1nn(-c2cc(O)c(F)c(C(=O)N(C)C)c2)c2cnc(N3CCOCC34CC4)cc12 [Compound 19.99, 2-Fluoro-3-hydroxy-N,N-dimethyl-5-(3-methyl-5-(7-oxa-4-azaspiro[2.5]octan-4-yl)-1H-pyrazolo[3,4-c]pyridin-1-yl)benzamide] | 6.00 to 7.00
COc1ccc(-c2ccc3c(cnn3-c3cc(O)c(F)c(C(F)(F)F)c3)c2)cc1Cl [Compound 1.02, 5-(5-(3-Chloro-4-methoxyphenyl)-1H-indazol-1-yl)-2-fluoro-3-(trifluoromethyl)phenol] | 6.00 to 7.00
CS(=O)(=O)N1CCN(c2cc3cnn(-c4cc(O)c(F)c(F)c4)c3cc2C(F)(F)F)CC1 [Compound 21.19, 2,3-Difluoro-5-(5-(4-(methyl-sulfonyl)piperazin-1-yl)-6-(trifluoromethyl)-1H-indazol-1-yl)phenol] | 4.52 to 6.00
CS(=O)(=O)N1CCN(c2ccc3c(cnn3-c3ccc(F)c(O)c3)c2)CC1 [Compound 20, 2-Fluoro-5-(5-(4-(methylsulfonyl)piperazin-1-yl)-1H-indazol-1-yl)phenol] | 4.52 to 6.00
Cc1nn(-c2cc(C(F)(F)F)c(F)c(O)c2F)c2cnc(N(C)C3CCOCC3)nc12 [Compound 19.78, 2,6-Difluoro-3-(3-methyl-5-(methyl(tetrahydro-2H-pyran-4-yl)amino)-1H-pyrazolo[4,3-d]pyrimidin-1-yl)-5-(trifluoromethyl)phenol] | > 7.00
CN(c1ccc2c(c1)c(N)nn2-c1cc(C(F)(F)F)c(F)c(O)c1F)C1CCOCC1 [Compound 19.93, 3-(3-Amino-5-(methyl(tetrahydro-2H-pyran-4-yl)amino)-1H-indazol-1-yl)-2,6-difluoro-5-(trifluoromethyl)phenol] | 6.00 to 7.00
O=S(=O)(C1CC1)N1CCN(c2cc3cnn(-c4cc(O)c(F)c(F)c4)c3cc2Cl)CC1 [Compound 21.32, 5-(6-Chloro-5-(4-(cycloprop-ylsulfonyl)piperazin-1-yl)-1H-indazol-1-yl)-2,3-difluoro-phenol] | 6.00 to 7.00
CC(=O)N1CCC(c2ccc3c(cnn3-c3ccc(F)c(O)c3)c2)CC1 [Compound 26, 1-(4-(1-(4-Fluoro-3-hydroxyphenyl)-1H-indazol-5-yl)piperidin-1-yl)ethan-1-one] | 4.52 to 6.00
CC(C)c1nn(-c2cc(C(F)(F)F)c(F)c(O)c2F)c2ccc(N(C)C3CCOCC3)cc12 [Compound 19.74, 2,6-Difluoro-3-(3-isopropyl-5-(methyl(tetrahydro-2H-pyran-4-yl)amino)-1H-indazol-1-yl)-5-(trifluoromethyl)phenol] | 6.00 to 7.00
Cc1cccc(-c2ccc3c(cnn3-c3ccc(F)c(O)c3)c2)c1 [Compound 4.08, 2-Fluoro-5-(5-(m-tolyl)-1H-indazol-1-yl)phenol] | 4.52 to 6.00
CS(=O)(=O)N1CCC(C#N)(c2ccc3c(cnn3-c3cc(O)c(F)c(F)c3)c2)CC1 [Compound 28.04, 4-(1-(3,4-Difluoro-5-hydroxy-phenyl)-1H-indazol-5-yl)-1-(methylsulfonyl)piperidine-4-carbonitrile] | 4.52 to 6.00
Oc1cnc(-c2ccc3c(cnn3-c3cc(O)c(F)c(F)c3)c2)nc1 [Compound 16.02, 2-(1-(3,4-Difluoro-5-hydroxyphenyl)-1H-indazol-5-yl)pyrimidin-5-ol] | 4.52 to 6.00
CC1CN(S(C)(=O)=O)CCN1c1cc2cn(-c3cc(O)c(F)c(C(F)(F)F)c3)nc2cn1 (stereo not drawn) [Compound 19.34, 2-Fluoro-5-(5-(2-methyl-4-(methylsulfonyl)piperazin-1-yl)-2H-pyrazolo[3,4-c]pyridine-2-yl)-3-(trifluoromethyl)phenol] | 6.00 to 7.00
Oc1cc(-n2ncc3cc(-c4ccc(O)c(Cl)c4)cnc32)ccc1F [Compound 8.01, 2-Chloro-4-(1-(4-fluoro-3-hydroxyphenyl)-1H-pyrazolo[3,4-b]pyridine-5-yl)phenol] | 6.00 to 7.00
Oc1cc(-n2ncc3cc(-c4ccc(O)c(Cl)c4)ccc32)ccc1F [Compound 5, 2-Chloro-4-(1-(4-fluoro-3-hydroxyphenyl)-1H-indazol-5-yl)phenol] | 6.00 to 7.00
COC(=O)c1nn(-c2cc(C(F)(F)F)c(F)c(O)c2F)c2ccc(N(C)C3CCOCC3)cc12 [Compound 19.88, Methyl 1-(2,4-difluoro-3-hydroxy-5-(trifluoromethyl)phenyl)-5-(methyl(tetrahydro-2H-pyran-4-yl)amino)-1H-indazole-3-carboxylate] | 6.00 to 7.00

Same assay, conditions: read-out: HSD17β13 inhibition at 10 uM

SMILES | inhibition at 10 µM [%]
Cc1nn(-c2cccc(O)c2C#N)c2cnc(N(C)C3CCOCC3)cc12 [Compound 19.120, 2-Hydroxy-6-(3-methyl-5-(methyl(tetrahydro-2H-pyran-4-yl)amino)-1H-pyrazolo[3,4-c]pyridin-1-yl)benzonitrile] | 25
CN(C)C(=O)C1CCN(c2ccc3c(cnn3-c3ccc(F)c(O)c3)c2)CC1 [Compound 20.04, 1-(1-(4-Fluoro-3-hydroxy-phenyl)-1H-indazol-5-yl)-N,N-dimethylpiperidine-4-carboxamide] | < 20

Same assay, conditions: read-out: HSD17β13 inhibition at 30 uM

SMILES | inhibition at 30 µM [%]
CS(=O)(=O)N1CCN(c2cc3cn(-c4cc(O)cc(C#N)c4)nc3cn2)CC1 [Compound 19.35, 3-Hydroxy-5-(5-(4-(methylsulfonyl)piperazin-1-yl)-2H-pyrazolo[3,4-c]pyridine-2-yl)benzonitrile] | 49
